Results as given in patent US5834429A, “Small peptides which inhibit binding to T-4 receptors and act as immunogens” (priority 1993, dated 1998).

Columns and labels:
[1] = test system: T4 antigen (gp120 receptor) on fresh rat hippocampal membranes; experiment: Displacement of specific 125I-gp120 binding to brain membranes; settings: for potency compared with peptide T (in words): FIG. 3; for rank order of potencies in inhibiting receptor binding: four peptides
Description: HTLV-IIIb isolate of HIV was propaged in H9 cells, and the gp120 was isolated by immunoaffinity chromatography and preparative NaDodSO4 /PAGE. Purified gp120 was labeled with ^125 I by the chloramine-T method.
Fresh human, monkey, and rat hippocampus were quickly homogenized (POLYTRON, Brinkmann Instruments) in 100 vol of ice-cold 50 mM Hepes (pH 7.4). The membranes collected by centrifugation (15,000×g) were washed in the original buffer volume and were used fresh or stored at -70° C. Before use, brain membranes and highly purified T cells (ref. 16; gift of Larry Wahl) were preincubated for 15-30 min in phosphate-buffered saline (PBS). Membranes derived from 2 mg (initial wet weight) of brain (.chi.100 μg of protein) were incubated with 28,000 cpm of ^125 I-gp120 for 1 hr at 37° C. in 200 μl (final volume) of 50 mM Hepes containing 0.1% bovine serum albumin and the peptidase inhibitors bacitracin (0.005%), aprotinin (0.005%), leupeptin (0.001%), and chymostatin (0.001%). Incubations were rapidly vacuum-filtered and counted to determine the receptor-bound material.

HTLV-III virus (HIV) = experiment: Blockade of viral infection of human T cells (reverse transcriptase activity); format: cell-based; settings: FIG. 3; for rank order of potencies in inhibiting viral infectivity: four peptides
Description: Separation of T-Lymphocyte Subsets. Subsets of T cells were obtained by treatment of PERCOLL density-purified peripheral blood T cells with specific monoclonal antibodies (T4 or T8) at 10 μg/ml. The treated cells were then panned (21) on a plastic Petri dish that was coated with goat [F(ab')2 ] anti-mouse immunoglobulin (Sero Lab, Eastbury, Mass.) for 30 min at 4° C. The nonadherent cells were then removed, washed, and analyzed for reactivity by flow cytometry. The separated T4 and T8 cell populations have <5% contamination of other T-cell subsets. Cells were then cultured with phytohemagglutinin (1 μg/ml) for 72 hr and exposed to HIV as described below. Infected cells were phenotypically characterized when cytotoxicity assays were performed.
Virus Infection. The HTLV-III virus used for infection was isolated from an interleukin 2 (IL-2)-dependent cultured T-cell line established from fresh AIDS patient material and passaged into HuT 78, a permissive IL-2-independent cell line.

T4 viral receptors = T4 viral receptors (Homo sapiens, UniProt P01730); experiment: Activity of cysteine-extended core peptide (test not specified)

| Compound | potency compared with peptide T (in words) [1] | rank order of potencies in inhibiting receptor binding [1] | rank order of potencies in inhibiting viral infectivity (HTLV-III virus (HIV)) | inhibition of gp120 binding to brain membranes (in words) [1] | concentration range at which 125I-gp120 binding is significantly inhibited ([1]; fresh rat hippocampal membranes, FIG. 2C) [nM] | blockade of viral infectivity (in words) (HTLV-III virus (HIV); human T cells) | activity (in words) (T4 viral receptors) |
| --- | --- | --- | --- | --- | --- | --- | --- |
| C[C@@H](N)C(=O)N[C@@H](CO)C(=O)N[C@H](C(=O)N[C@H](C(=O)N[C@H](C(=O)N[C@@H](CC(N)=O)C(=O)N[C@@H](Cc1ccc(O)cc1)C(=O)N[C@H](C(N)=O)[C@@H](C)O)[C@@H](C)O)[C@@H](C)O)[C@@H](C)O [D-[Ala]1-peptide T-amide] | somewhat greater potency | D-[Ala]1 -peptide T-amide>D-[Ala]1 -peptide T>peptide T>D-[Thr]8 -peptide T-amide | D-[Ala]1 -peptide T-amide>D-[Ala]1 -peptide T>peptide T>D-[Thr]8 -peptide T-amide | – | – | – | – |
| C[C@@H](N)C(=O)N[C@@H](CO)C(=O)N[C@H](C(=O)N[C@H](C(=O)N[C@H](C(=O)N[C@@H](CC(N)=O)C(=O)N[C@@H](Cc1ccc(O)cc1)C(=O)N[C@H](C(=O)O)[C@@H](C)O)[C@@H](C)O)[C@@H](C)O)[C@@H](C)O [D-[Ala]1-peptide T] | consistently more potent | D-[Ala]1 -peptide T-amide>D-[Ala]1 -peptide T>peptide T>D-[Thr]8 -peptide T-amide | D-[Ala]1 -peptide T-amide>D-[Ala]1 -peptide T>peptide T>D-[Thr]8 -peptide T-amide | – | – | – | – |
| C[C@H](N)C(=O)N[C@@H](CO)C(=O)N[C@H](C(=O)N[C@H](C(=O)N[C@H](C(=O)N[C@@H](CC(N)=O)C(=O)N[C@@H](Cc1ccc(O)cc1)C(=O)N[C@H](C(=O)O)[C@@H](C)O)[C@@H](C)O)[C@@H](C)O)[C@@H](C)O [peptide T] | – | D-[Ala]1 -peptide T-amide>D-[Ala]1 -peptide T>peptide T>D-[Thr]8 -peptide T-amide | D-[Ala]1 -peptide T-amide>D-[Ala]1 -peptide T>peptide T>D-[Thr]8 -peptide T-amide | inhibit binding of gp 120 to the brain membranes | ~0.1 | blocked | – |
| CYS-THR-THR-ASN-TYR-THR-CYS (CTTNYTC; printed: CYS-THR-THR-ASN-TYR-THR-CYS) | – | – | – | – | – | – | active |
| substance P [1-8]: irrelevant octapeptide substance P [1-8] (RPKPQQFF; Substance P; UniProt P20366 58-65, looked up, fragment) [reference compound] | – | – | – | not | – | – | – |
